# Experiments:
# Plasmodium falciparum [1] = assay: Antiplasmodial activity against chloroquine-sensitive Plasmodium falciparum 3D7; type: functional, organism-based
# Plasmodium falciparum [2] = assay: Antiplasmodial activity against Plasmodium falciparum W2/Indochina after 72 hrs by SYBR Green method; type: functional
# [3] = Aqueous solubility of the compound; type: physicochemical; conditions: aqueous (not further specified)
# [4] = Half life in mouse liver microsomes; type: ADME, Microsome
# [5] = biological target: Voltage-gated inwardly rectifying potassium channel KCNH2 (Homo sapiens, UniProt Q12809); assay: Binding affinity to human ERG channel
# Plasmodium falciparum [6] = assay: Antiplasmodial activity against Plasmodium falciparum W2; type: functional, organism-based
# Plasmodium falciparum [7] = assay: Antimicrobial activity against clinical isolates of Plasmodium falciparum; type: functional, organism-based
# [8] = Solubility of the compound at pH 6.8; type: physicochemical; conditions: buffer
# [9] = Elimination half life in CD-1 mouse at 5 mg/kg, po; type: ADME, organism-based; parameters: dose 5 mg/kg, route oral; conditions: in vivo, read-out: beta t1/2 (converted)
# Plasmodium berghei = assay: Antiplasmodial activity against Plasmodium berghei infected po dosed CD-1 mouse model administered qd measured on day 4; type: functional; conditions: 96 h
# Plasmodium falciparum [10] = assay: Antiplasmodial activity against blood stage Plasmodium falciparum 3D7 by SYBR Green method; type: functional, organism-based
# Plasmodium falciparum [11] = assay: Antiplasmodial activity against wild type Plasmodium falciparum 3D7; type: functional, organism-based
# Plasmodium falciparum [12] = assay: Antiplasmodial activity against Plasmodium falciparum after 72 hrs by MSF assay; type: functional, organism-based
# [13] = Half life in mouse hepatic microsomes by LC/MS analysis in presence of NADPH; type: ADME; conditions: liver microsomes
# Plasmodium falciparum [14] = assay: Antiplasmodial activity against atovaquone-resistant Plasmodium falciparum Tm90.C2B after 72 hrs by MSF assay; type: functional, organism-based
# Plasmodium falciparum [15] = assay: Antiplasmodial activity against blood stage form of Plasmodium falciparum NF54; type: functional, organism-based
# Plasmodium = assay: Antimicrobial activity against Plasmodium; type: functional
# Chain of Voltage-gated inwardly rectifying potassium channel KCNH2 (Q12809 whole entry): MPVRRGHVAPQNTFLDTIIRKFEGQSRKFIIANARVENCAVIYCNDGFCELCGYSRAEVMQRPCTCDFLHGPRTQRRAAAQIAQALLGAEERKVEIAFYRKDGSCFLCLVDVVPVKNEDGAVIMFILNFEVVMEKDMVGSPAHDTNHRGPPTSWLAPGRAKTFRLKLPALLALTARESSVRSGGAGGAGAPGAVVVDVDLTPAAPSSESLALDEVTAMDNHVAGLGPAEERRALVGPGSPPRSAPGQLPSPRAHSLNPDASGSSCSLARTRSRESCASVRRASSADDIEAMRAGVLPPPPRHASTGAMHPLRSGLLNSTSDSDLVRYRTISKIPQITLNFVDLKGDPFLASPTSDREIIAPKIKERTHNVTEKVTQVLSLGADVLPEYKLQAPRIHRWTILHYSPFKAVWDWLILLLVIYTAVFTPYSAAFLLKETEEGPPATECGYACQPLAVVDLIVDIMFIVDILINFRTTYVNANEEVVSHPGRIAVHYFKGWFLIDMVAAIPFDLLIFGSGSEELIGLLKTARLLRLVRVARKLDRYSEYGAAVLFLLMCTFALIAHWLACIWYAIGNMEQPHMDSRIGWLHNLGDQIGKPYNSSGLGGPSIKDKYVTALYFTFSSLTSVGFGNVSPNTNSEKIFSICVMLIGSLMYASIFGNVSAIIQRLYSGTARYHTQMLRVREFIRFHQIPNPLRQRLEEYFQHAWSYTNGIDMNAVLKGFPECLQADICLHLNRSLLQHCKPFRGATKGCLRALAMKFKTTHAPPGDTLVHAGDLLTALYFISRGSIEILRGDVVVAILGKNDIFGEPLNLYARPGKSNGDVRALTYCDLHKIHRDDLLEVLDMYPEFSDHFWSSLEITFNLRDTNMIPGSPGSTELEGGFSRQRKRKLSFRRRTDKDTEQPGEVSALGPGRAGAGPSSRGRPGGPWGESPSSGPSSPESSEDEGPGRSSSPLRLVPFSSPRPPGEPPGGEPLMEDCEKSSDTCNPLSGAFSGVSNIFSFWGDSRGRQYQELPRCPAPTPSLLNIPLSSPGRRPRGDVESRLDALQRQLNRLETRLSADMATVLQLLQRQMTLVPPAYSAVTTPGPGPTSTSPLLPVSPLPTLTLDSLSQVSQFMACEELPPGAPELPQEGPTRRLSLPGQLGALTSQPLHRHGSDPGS
compound,measurement,setting,value
FC(F)(F)Oc1ccc(Nc2cc(Nc3nccn3-c3cccc(C(F)(F)F)c3)ncn2)cc1,EC50,Plasmodium falciparum [1],0.42 µM
O=c1c2c([nH]c3ccc(-c4ccc(C(F)(F)F)cc4)cc13)CCSC2,Activity,Plasmodium falciparum [2],30 nM
same,solubility,[3],2 µM
same,half-life,[4],> 3 h
CC1(C)c2nc(-c3ccc(F)cc3)c(Nc3ccc(Cl)cc3)n2CCN1C(=O)CN,IC50,[5],7.2 µM
same,EC50,Plasmodium falciparum [6],0.006 µM
COc1cc2[nH]c(C)c(-c3ccc(Oc4ccc(OC(F)(F)F)cc4)cc3)c(=O)c2cc1Cl,EC50,Plasmodium falciparum [7],0.001 µM
same,solubility,[8],< 1 µM
CCOC(=O)c1c(-c2ccc(-c3ccc(OC(F)(F)F)cc3)cn2)[nH]c2ccccc2c1=O,half-life,[9],10.6 h
same,ED50,Plasmodium berghei,2 mg/kg
same,EC50,Plasmodium falciparum [10],0.03 µM
CCOC(=O)c1c(C)[nH]c2cc(Cc3ccc(OC(F)(F)F)cc3)ccc2c1=O,EC50,Plasmodium falciparum [11],0.00046 µM
CCCCCCCc1c(C)[nH]c2cc(F)cc(F)c2c1=O,EC50,Plasmodium falciparum [12],0.0001 µM
same,half-life,[13],0.245 h
same,EC50,Plasmodium falciparum [14],0.08 µM
COc1ccc2c(=O)c(CCCCCC(F)(F)F)c(C)[nH]c2c1,EC50,Plasmodium falciparum [12],0.03 µM
same,EC50,Plasmodium falciparum [14],0.066 µM
C[C@H]1Cc2c([nH]c3cc(Cl)c(F)cc23)[C@@]2(N1)C(=O)Nc1ccc(Cl)cc12 [CIPARGAMIN],EC50,Plasmodium falciparum [15],0.001 µM
Cc1nc(C)c(Cl)c(O)c1Cl [CLOPIDOL],EC50,Plasmodium,20 µM

# Source: ChEMBL document CHEMBL2429781, “Cell-based medicinal chemistry optimization of high-throughput screening (HTS) hits for orally active antimalarials. Part 1: challenges in potency and absorption, distribution, metabolism, excretion/pharmacokinetics (ADME/PK)” (J Med Chem, 2013)
